Assay results as given in the NIST ThermoML archive (doi:10.1021/acs.jced.9b00377).

Assays:
[1] = for viscosity: Falling or rolling sphere viscometry; for speed of sound: Single path-length method
[2] = refractive index (Na D-line) (dimensionless); settings: 100 kPa, Liquid, Standard Abbe refractometry

CN(C)C(=[NH2+])N(C)C.O=C([O-])O [1,1,3,3-tetramethylguanidinium hydrogen carbonate]
Settings | mass density [kg/m3]
[1], 173 K, 101.33 kPa, Crystal, X-ray diffraction | 1213

CCCCCCCC(=O)[O-].CN(C)C(=[NH2+])N(C)C [1,1,3,3-tetramethylguanidinium octanoate]
[1], 100 kPa, Liquid
Settings | speed of sound [m/s] | viscosity [mPa·s]
293.15 K | 1497.3 | 1093
298.15 K | 1481.3 | 737.2
303.15 K | 1465.4 | 506.8
308.15 K | 1449.4 | 347.6
313.15 K | 1433.5 | 249.6
318.15 K | 1417.5 | 186.8
323.15 K | 1401.6 | 138.8
328.15 K | 1387.2 | 105.7
333.15 K | 1371.3 | 81.2
338.15 K | 1355.3 | 65
343.15 K | 1339.4 | 52.5

[1], 100 kPa, Liquid, Vibrating tube method
Settings | mass density [kg/m3]
293.15 K | 969.06
298.15 K | 965.65
303.15 K | 962.28
308.15 K | 958.95
313.15 K | 955.63
318.15 K | 952.3
323.15 K | 948.95
328.15 K | 945.59
333.15 K | 942.23
338.15 K | 938.85
343.15 K | 935.46

[2]
Settings | refractive index
293.15 K | 1.4678
298.15 K | 1.4657
303.15 K | 1.4631
308.15 K | 1.4612
313.15 K | 1.4589
318.15 K | 1.4565
323.15 K | 1.4544
328.15 K | 1.4523
333.15 K | 1.4501
338.15 K | 1.4482
343.15 K | 1.4463

CCCCC(=O)[O-].CN(C)C(=[NH2+])N(C)C [1,1,3,3-tetramethylguanidinium pentanoate]
[1], 100 kPa, Liquid
Settings | speed of sound [m/s] | viscosity [mPa·s]
293.15 K | 1540.6 | 1241
298.15 K | 1524.7 | 797.9
303.15 K | 1508.7 | 561.1
308.15 K | 1492.8 | 382.2
313.15 K | 1476.8 | 268.2
318.15 K | 1460.8 | 199.7
323.15 K | 1444.9 | 147.7
328.15 K | 1430.5 | 111.4
333.15 K | 1414.6 | 85.2
338.15 K | 1398.6 | 67.7
343.15 K | 1382.7 | 54

[1], 100 kPa, Liquid, Vibrating tube method
Settings | mass density [kg/m3]
293.15 K | 1010.3
298.15 K | 1006.9
303.15 K | 1003.4
308.15 K | 1000
313.15 K | 996.64
318.15 K | 993.25
323.15 K | 989.84
328.15 K | 986.42
333.15 K | 982.98
338.15 K | 979.53
343.15 K | 976.07

[2]
Settings | refractive index
293.15 K | 1.4776
298.15 K | 1.4758
303.15 K | 1.4736
308.15 K | 1.4718
313.15 K | 1.4699
318.15 K | 1.4681
323.15 K | 1.4664
328.15 K | 1.4648
333.15 K | 1.4633
338.15 K | 1.4615
343.15 K | 1.46
